Series [1] relates to CYP1B1 gene. As to the kind of experiment: Suppression of CYP1B1 gene expression induced by atmospheric dust (quantitative real-time PCR). Type of series: cell-based, human. As to conditions: NHEK; sample 0.001% by mass 24 h, then atmospheric dust (NIST 1648a) 500 μg/mL 48 h; standardized to GAPDH; control without dust = 1; dust + water = 4.30. On the procedure: The effect of the inositol derivative on suppressing the expression of a CYP1A1 gene and a CYP1B1 gene in normal human epidermal keratinocytes (NHEK, manufactured by KURABO INDUSTRIES LTD.) was measured under the following conditions.
The NHEK cells were seeded in a HuMedia KG2 medium manufactured by KURABO INDUSTRIES LTD. at the seeding density of 10000 cells/cm^2, and cultured for 24 hours under the conditions of 37° C. and 5% CO2. […] Using this cDNA as a template, the expression levels of the CYP1A1 gene and the CYP1B1 gene were quantitatively determined by quantitative real-time PCR using primers (QuantiTect Primer Assays, manufactured by QIAGEN) specific to the CYP1A1 gene and the CYP1B1 gene. As an internal standard gene, the expression level of a GAPDH gene, which is a housekeeping gene in which expression fluctuation due to the addition of atmospheric dust is not shown, was quantitatively determined (primer used: Perfect Real Time Primer, manufactured by Takara Bio Inc.), and the expression levels of the CYP1A1 gene and the CYP1B1 gene were standardized based on the expression level of GAPDH. […]
(Real-time PCR tracks product formation cycle by cycle.)

In series [2] the test system is cell line derived from Lewis lung carcinoma (LLC). The series is described as follows: Effect (1) of suppressing proliferation of cancer cells accelerated by atmospheric dust (WST-8). In kind it is cell-based. The note with it: sample 0.001% by mass 24 h, then atmospheric dust 500 μg/mL 48 h, WST-8 absorbance 450 nm relative to control without dust = 1, dust + water = 2.31. On the procedure:
The effect of the inositol derivative on suppressing the proliferation of cancer cells in a cell line derived from Lewis lung carcinoma (LLC, JCRB Cell Bank) was measured under the following conditions. The LLC cells were seeded at the seeding density of 50000 cells/cm^2 in a culture medium in which a Ham F 10 medium and an L15 medium (both manufactured by Sigma-Aldrich) were mixed at the ratio of 3:7 (volume ratio), and cultured for 24 hours under the conditions of 37° C. and 5% CO2. Next, an aqueous solution of the inositol derivative or an aqueous solution of myo-inositol was added to the culture medium so that the final concentration of the inositol derivative or myo-inositol was 0.001% by mass, or water (pure water) was added to the culture medium, and culturing was further performed for 24 hours. Thereafter, 0.1 mL of a DMSO solution of atmospheric dust (NIST 1648a) was added per 100 mL of the culture medium so that the final concentration of the atmospheric dust in the culture medium was 500 μg/mL, and culturing was further performed for 48 hours in the same conditions as above. Thereafter, the culture medium was replaced with a medium containing 10% (V/V) of WST-8 of Nacalai Tesque Inc., and after further culturing for 3 hours, the absorbance at the wavelength of 450 nm was measured with a microplate reader i-Control (manufactured by Tecan Group Ltd.). […]

The test system is the same in series [3]. As to the kind of experiment: Effect of suppressing invasion of cancer cells (CytoSelect invasion assay kit). As to conditions: sample 0.001% by mass 24 h, then atmospheric dust 500 μg/mL 6 h + 18 h, fluorescence relative to control without dust = 1, dust + water = 1.67. In kind it is cell-based. On the procedure:
The effect of the inositol derivative on suppressing the invasion of cancer in a cell line derived from Lewis lung carcinoma (LLC, JCRB Cell Bank) was measured under the following conditions. A CytoSelect invasion assay kit manufactured by Cell Biolabs, Inc. was used for a test. The LLC cells were seeded in a chamber plate for invasion tests attached to the above-mentioned invasion assay kit so that the concentration was 100000 cells/mL using a culture medium in which a Ham F10 medium and an L15 medium (both manufactured by Sigma-Aldrich) were mixed at the ratio of 3:7 (volume ratio), and cultured for 24 hours under the conditions of 37° C. and 5% CO2. Next, an aqueous solution of the inositol derivative or an aqueous solution of myo-inositol was added to the culture medium so that the final concentration of the inositol derivative or myo-inositol was 0.001% by mass, or water (pure water) was added to the culture medium, and culturing was further performed for 24 hours. […] Thereafter, the cells were stained using the above-mentioned invasion assay kit, and the fluorescence intensity at an excitation wavelength of 480 nm/an absorption wavelength of 570 nm was measured with a microplate reader i-Control (manufactured by Tecan Group Ltd.). […]

Each structure is given as a SMILES string.

Take `O[C@H]1[C@H](O)[C@@H](O)[C@H](O)[C@@H](O)[C@H]1O` [myo-Inositol, myo-inositol]: the “Relative gene expression level CYP1B1” value in series [1] is recorded as 1.08. In addition, the “Relative cell proliferation amount” value in series [2] is 2.03. Also, the Relative cell invasion in series [3] came out at 1.53.

These data come from patent US20220257621A1, “CANCER CELL PROLIFERATION SUPPRESSION AGENT AND COMPOSITION FOR SUPPRESSING PROLIFERATION OF CANCER CELLS” (SHOWA DENKO K.K., priority 2019, published 2022).
